Entries after “also recorded” stand apart in the source; their conditions may differ. Where two headings read alike, the source gives them in different places.
Columns and labels:
nsp14–nsp10 = nsp14–nsp10 (Severe acute respiratory syndrome coronavirus 2, UniProt P0DTD1); assay type: binding, SARS-CoV-2; conditions: for ΔTm: 1 µM nsp14-10; for effect on thermal stability / aggregation of nsp14–nsp10 (words): 3.1-100 µM compound
[1] = target: SARS-CoV-2 nsp14–nsp10 complex (nuclease activity) (Severe acute respiratory syndrome coronavirus 2, UniProt P0DTD1); assay: biochemical; conditions: for IC50 value / IC50: 100 nM nsp14–nsp10, 10 nM 20-mer ssRNA, 37°C 45 min, approximate/preliminary; for inhibition of substrate digestion in gel-based assay: 100 nM nsp14–nsp10, compound up to 100 μM
[2] = target: SARS-CoV-2 nsp14–nsp10 RNase activity (Severe acute respiratory syndrome coronavirus 2, UniProt P0DTD1); assay type: biochemical
[3] = target: nsp14–nsp10 co-incubated with nsp8 (Severe acute respiratory syndrome coronavirus 2, UniProt P0DTD1); assay: gel-based nuclease inhibition assay with nsp8 stimulation; assay type: biochemical, SARS-CoV-2; conditions: 100 nM nsp14-nsp10 and 300 nM nsp8, compound 3-100 μM
[4] = target: guanine N7 methyl transferase (MTase) activity of nsp14–nsp10 (Severe acute respiratory syndrome coronavirus 2, UniProt P0DTD1); assay: HTRF methyltransferase assay; assay type: biochemical, SARS-CoV-2; conditions: 2.5, 5 and 10 μM compound; 10 nM nsp14-nsp10, 5 μM SAM, 0.14 mM GP3G
SARS-CoV-2 = conditions: cited from earlier work
[5] = 125 nM (ions) or 250 nM (chelators) nsp14-nsp10, ions 0.05-10 mM, chelators 0.03-1 mM
[6] = Supplementary Table 2, in vitro inhibition of nsp14-nsp10 nuclease activity, result in words

`O=c1c2ccccc2[nH]c(=S)n1O` [A-5, 3-Hydroxy-2-thioxo-2,3-dihydroquinazolin-4-one] gave a ΔTm (nsp14–nsp10; 3.1 µM compound) of 0.00 °C, a ΔTm (nsp14–nsp10; 6.3 µM compound) of 0.24 °C and a ΔTm (nsp14–nsp10; 12.5 µM compound) of 0.19 °C. The ΔTm (nsp14–nsp10; 25 µM compound) was 0.00 °C, the ΔTm (nsp14–nsp10; 50 µM compound) was 0.38 °C and the ΔTm (nsp14–nsp10; 100 µM compound) was 0.61 °C. The IC50 value [1] was “incomplete inhibition”.

Compound `COc1ccc2c3c(cccc13)C(=O)N(O)C2=O` [A-1] has a ΔTm (nsp14–nsp10; 3.1 µM compound) of 0.02 °C, a ΔTm (nsp14–nsp10; 6.3 µM compound) of 0.31 °C and a ΔTm (nsp14–nsp10; 12.5 µM compound) of 0.25 °C. The ΔTm (nsp14–nsp10; 25 µM compound) was 0.17 °C, the ΔTm (nsp14–nsp10; 50 µM compound) was 0.29 °C and the ΔTm (nsp14–nsp10; 100 µM compound) was 0.60 °C. The “inhibition of substrate digestion in gel-based assay” value [1] was “qualitatively complete inhibition of substrate digestion”.

`O=c1[nH]c2ccccc2c(=O)n1O` [A-3] showed a ΔTm (nsp14–nsp10; 3.1 µM compound) of -0.10 °C, a ΔTm (nsp14–nsp10; 6.3 µM compound) of 0.13 °C and a ΔTm (nsp14–nsp10; 12.5 µM compound) of 0.31 °C. The ΔTm (nsp14–nsp10; 25 µM compound) was 1.33 °C and the ΔTm (nsp14–nsp10; 50 µM compound) was 0.36 °C.

For `[Cl-].[Cl-].[Zn+2]` [zinc], the “effect on RNase activity of nsp14–nsp10” value [2] was “inhibitory”.

For `[Mg]` [magnesium], the “effect on RNase activity of nsp14–nsp10” value [2, 5] was “promoted the RNase activity”.

Compound `CN(C)C(=S)SSC(=S)N(C)C` [thiram, reference compound] has a ΔTm (nsp14–nsp10; 3.1 µM compound) of -0.53 °C, a ΔTm (nsp14–nsp10; 6.3 µM compound) of -0.46 °C and a ΔTm (nsp14–nsp10; 12.5 µM compound) of -0.22 °C. The ΔTm (nsp14–nsp10; 25 µM compound) was -0.42 °C, the ΔTm (nsp14–nsp10; 50 µM compound) was -0.43 °C and the ΔTm (nsp14–nsp10; 100 µM compound) was -0.21 °C. For the same compound, the IC50 [1] was 48.2 ± 1.8 µM and the Level of inhibition [1, 6] was “Yes”.

For `O=C(O)c1nc(-c2ccccc2)nc(O)c1O` [B-1, 5,6-Dihydroxyl-2-phenylpyrimidine-4-carboxylic acid], the “inhibition of nuclease activity in presence of nsp8” value (“inhibition of nuclease activity” for short) [3] was “inhibition was still observed, albeit at higher inhibitor concentrations”, the ΔTm (nsp14–nsp10; 3.1 µM compound) was -0.15 °C and the ΔTm (nsp14–nsp10; 6.3 µM compound) was 0.02 °C. For the same compound, the ΔTm (nsp14–nsp10; 12.5 µM compound) was 0.08 °C, the ΔTm (nsp14–nsp10; 25 µM compound) was -0.57 °C and the ΔTm (nsp14–nsp10; 50 µM compound) was 0.23 °C. For the same compound, the ΔTm (nsp14–nsp10; 100 µM compound) was 0.46 °C, the “MTase inhibition” value [4] was “demonstrated MTase inhibition activity; also recorded: most potent compound” and the IC50 [1] was 32.2 ± 4.5 µM. The Level of inhibition [1, 6] was “Yes”.

In the case of `Cc1nnc(C(=O)NC(C)(C)c2nc(C(=O)NCc3ccc(F)cc3)c(O)c(=O)n2C)o1` [raltegravir, reference compound], the “antiviral activity in cell-based assays” value (SARS-CoV-2) is given as “did not” and the IC50 [1] is given as 24.4 ± 2.7 µM.

For `CCN(CC)C(=S)SSC(=S)N(CC)CC` [disulfiram, reference compound], the ΔTm (nsp14–nsp10; 3.1 µM compound) was -0.53 °C, the ΔTm (nsp14–nsp10; 6.3 µM compound) was -0.58 °C and the ΔTm (nsp14–nsp10; 12.5 µM compound) was -0.13 °C. It also gave a ΔTm (nsp14–nsp10; 25 µM compound) of -0.42 °C, a ΔTm (nsp14–nsp10; 50 µM compound) of -0.40 °C and a ΔTm (nsp14–nsp10; 100 µM compound) of 0.33 °C.

In the case of `c1cnc2c(c1)ccc1cccnc12` [o-phenanthroline, reference compound], the “effect on RNase activity of nsp14–nsp10” value [2, 5] is reported as “inhibitory”.

For `COc1cc2c3c(cccc3c1)C(=O)N(O)C2=O` [A-2], the “inhibition of nuclease activity” value [3] was “inhibition was still observed, albeit at higher inhibitor concentrations”, the ΔTm (nsp14–nsp10; 3.1 µM compound) was 0.01 °C and the ΔTm (nsp14–nsp10; 6.3 µM compound) was 0.26 °C. The ΔTm (nsp14–nsp10; 12.5 µM compound) was 0.22 °C, the ΔTm (nsp14–nsp10; 25 µM compound) was 0.21 °C and the ΔTm (nsp14–nsp10; 50 µM compound) was 0.36 °C. For the same compound, the “MTase inhibition” value [4] was “demonstrated MTase inhibition activity”, the IC50 [1] was 20.7 ± 0.5 µM and the “inhibition of substrate digestion in gel-based assay” value [1] was “qualitatively complete inhibition of substrate digestion”. For the same compound, the Level of inhibition [1, 6] was “Yes”.

`O=C(O)C1=CC(=C(c2ccc(O)c(C(=O)O)c2)c2ccc(O)c(C(=O)O)c2)C=CC1=O` [ATA, Aurintricarboxylic acid, reference compound] showed a ΔTm (nsp14–nsp10; 3.1 µM compound) of 0.33 °C, a ΔTm (nsp14–nsp10; 6.3 µM compound) of 0.27 °C and a ΔTm (nsp14–nsp10; 12.5 µM compound) of 0.85 °C. The ΔTm (nsp14–nsp10; 25 µM compound) was 3.08 °C, the “effect on thermal stability / aggregation of nsp14–nsp10 (words)” value (nsp14–nsp10) was “destabilizing effect on thermal stability of nsp14–nsp10” and the “effect on thermal stability / aggregation of nsp14–nsp10 (words)” value (nsp14–nsp10; listed as aurintricarboxylic acid) was “appears to aggregate the protein at high concentration”. The Level of inhibition [1, 6] was “Yes”.

For `Cc1ccc(-n2sc3ccccc3c2=O)cc1` [PBIT, reference compound], the IC50 value [1] was “IC50 not reached under assay conditions”.

For `O=c1c2ccccc2n(Cc2ccccc2)c(=O)n1O` [A-4], the ΔTm (nsp14–nsp10; 3.1 µM compound) was -0.06 °C, the ΔTm (nsp14–nsp10; 6.3 µM compound) was 0.11 °C and the ΔTm (nsp14–nsp10; 12.5 µM compound) was 0.27 °C. For the same compound, the ΔTm (nsp14–nsp10; 25 µM compound) was -1.33 °C, the ΔTm (nsp14–nsp10; 50 µM compound) was 0.35 °C and the ΔTm (nsp14–nsp10; 100 µM compound) was 0.62 °C. For the same compound, the IC50 [1] was 94.1 ± 27 µM and the Level of inhibition [1, 6] was “Yes”.

For `O=C(O)CN(CCOCCOCCN(CC(=O)O)CC(=O)O)CC(=O)O` [EGTA, ethylene glycol-bis (b-aminoethyl ether)-N,N,N’,N’-tetraacetic acid, reference compound], the “effect on RNase activity of nsp14–nsp10” value [2, 5] was “inhibitory”.

In the case of `O=c1c2ccccc2[se]n1-c1ccccc1` [ebselen, reference compound], the “inhibition of nuclease activity” value [3] is listed as “inhibition was still observed, albeit at higher inhibitor concentrations”, the “MTase inhibition” value [4] is listed as “demonstrated MTase inhibition activity” and the “antiviral activity in cell-based assays” value (SARS-CoV-2) is listed as “exhibited antiviral activity in cell-based assays”. For the same compound, the Level of inhibition [1] was “Yes”.

In the case of `[Mn+2]` [manganese], the “effect on RNase activity of nsp14–nsp10” value [2] is reported as “promoted the RNase activity”.

— paper PMC8860572 (Nucleic Acids Research, 2022)
